From patent publication US9695155B2, “Herbicidal substituted pyrimidinyloxy benzene compounds” (E. I. DU PONT DE NEMOURS AND COMPANY, priority 2013, dated 2017)

Assays:
wild poinsettia = assay: Test E postemergence; format: in vivo, Euphorbia heterophylla; details: Euphorbia heterophylla, post-emergence, read-out: Plant response rating, Poinsettia, Wild
Method in brief: (§1)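 Test chemicals formulated in a non-phytotoxic solvent mixture containing a surfactant were applied preemergence to seeds in silt loam soil or postemergence to plants at the 1- to 4-leaf stage in potting mix. After 14 to 21 days in a greenhouse, injury was visually rated against controls on a 0-100 scale (0 = no effect, 100 = complete control).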

canarygrass = assay: Test D postemergence; format: in vivo, Phalaris minor; details: Phalaris minor, post-emergence, scale 0 to 100 (0 no effect, 100 complete control), read-out: Plant response rating, Canarygrass
Method in brief: (§2)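 Plant response is a visual score from 0 (no effect) to 100 (complete control) relative to controls. Plants were kept in a controlled growth environment for 7 to 21 days after spraying. Preemergence treatments went onto silt loam soil; postemergence ones onto 1- to 4-leaf seedlings.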

chamomile = assay: Test D postemergence; format: in vivo, Matricaria inodora; details: Tripleurospermum inodorum, post-emergence, scale 0 to 100 (0 no effect, 100 complete control), read-out: Plant response rating, Chamomile
Method in brief: as §2

oilseed rape = assay: Test D preemergence; format: in vivo, Brassica napus; details: Brassica napus, pre-emergence, scale 0-100, read-out: Plant response rating, Oilseed Rape
Method in brief: as §2

waterhemp = assay: Test E postemergence; format: in vivo, Amaranthus rudis; details: Amaranthus tuberculatus, post-emergence, Postemergence, scale 0 to 100, read-out: Plant response rating, Waterhemp
Method in brief: as §1

[1] = test system: waterhemp_RES2 (ALS & HPPD resistant common waterhemp); assay: Test E postemergence; format: in vivo, Amaranthus rudis; details: Amaranthus tuberculatus, post-emergence, read-out: Plant response rating, Waterhemp_RES2
Method in brief: as §1

green foxtail [2] = assay: Test D preemergence; format: in vivo, Setaria viridis; details: Setaria viridis, pre-emergence, scale 0-100, read-out: Plant response rating, Foxtail, Green
Method in brief: as §2

lambsquarters = assay: Test D postemergence; format: in vivo, Chenopodium album; details: Chenopodium album, post-emergence, scale 0 to 100 (0 no effect, 100 complete control), read-out: Plant response rating, Lambsquarters
Method in brief: as §2

green foxtail [3] = assay: Test D postemergence; format: in vivo, Setaria viridis; details: Setaria viridis, post-emergence, scale 0 to 100 (0 no effect, 100 complete control), read-out: Plant response rating, Foxtail, Green
Method in brief: as §2

wild buckwheat = assay: Test D postemergence; format: in vivo, Polygonum convolvulus; details: Fallopia convolvulus, post-emergence, Postemergence, scale 0 to 100 (0 no effect, 100 complete control), read-out: Plant response rating, Buckwheat, Wild
Method in brief: as §2

kochia = assay: Test D postemergence; format: in vivo, Kochia scoparia; details: Bassia scoparia, post-emergence, scale 0 to 100 (0 no effect, 100 complete control), read-out: Plant response rating, Kochia
Method in brief: as §2

winter barley = assay: Test D postemergence; format: in vivo, Hordeum vulgare; details: Hordeum vulgare, post-emergence, Postemergence, scale 0 to 100 (0 no effect, 100 complete control), read-out: Plant response rating, Barley, Winter
Method in brief: as §2

spring barley = assay: Test D postemergence; format: in vivo, Hordeum vulgare; details: Hordeum vulgare, post-emergence, Postemergence, scale 0 to 100 (0 no effect, 100 complete control), read-out: Plant response rating, Barley, Spring
Method in brief: as §2

[4] = Postemergence, 31 g ai/ha, scale 0 to 100
[5] = Postemergence, 62 g ai/ha, scale 0 to 100
[6] = Postemergence, 125 g ai/ha, scale 0 to 100
[7] = Postemergence, 250 g ai/ha, scale 0 to 100
[8] = postemergence, 16 g ai/ha, scale 0 to 100, 0 no effect, 100 complete control

N#Cc1cccc(Oc2ncc(Br)cn2)c1-n1cc(C(F)(F)F)cn1 [Compound 59, 3-[(5-bromo-2-pyrimidinyl)oxy]-2-[4-(trifluoromethyl)-1H-pyrazol-1-yl]benzonitrile]
pest or weed control at 31 g/ha (wild poinsettia; [4]): 50%
pest or weed control at 62 g/ha (wild poinsettia; [5]): 60%
pest or weed control at 125 g/ha (wild poinsettia; [6]): 65%
pest or weed control at 250 g/ha (wild poinsettia; [7]): 80%
pest or weed control at 16 g/ha (wild poinsettia; [8]): 50%
pest or weed control at 31 g/ha (canarygrass; 31 g ai/ha): 20%
pest or weed control at 62 g/ha (canarygrass; 62 g ai/ha): 30%
pest or weed control at 125 g/ha (canarygrass; 125 g ai/ha): 35%
pest or weed control at 250 g/ha (canarygrass; 250 g ai/ha): 35%
pest or weed control at 31 g/ha (chamomile; 31 g ai/ha): 5%
pest or weed control at 62 g/ha (chamomile; 62 g ai/ha): 10%
pest or weed control at 125 g/ha (chamomile; 125 g ai/ha): 10%
pest or weed control at 250 g/ha (chamomile; 250 g ai/ha): 15%
plant injury at 31 g/ha (oilseed rape; 31 g ai/ha): 65%
plant injury at 62 g/ha (oilseed rape; 62 g ai/ha): 60%
plant injury at 125 g/ha (oilseed rape; 125 g ai/ha): 100%
plant injury at 250 g/ha (oilseed rape; 250 g ai/ha): 100%
pest or weed control at 31 g/ha (waterhemp; 31 g ai/ha): 65%
pest or weed control at 62 g/ha (waterhemp; 62 g ai/ha): 90%
pest or weed control at 125 g/ha (waterhemp; 125 g ai/ha): 90%
pest or weed control at 250 g/ha (waterhemp; 250 g ai/ha): 100%
pest or weed control at 31 g/ha [1, 4]: 85%
pest or weed control at 62 g/ha [1, 5]: 90%
pest or weed control at 125 g/ha [1, 6]: 95%
pest or weed control at 250 g/ha [1, 7]: 100%
pest or weed control at 16 g/ha [1, 8]: 75%
pest or weed control at 31 g/ha (green foxtail [2]; 31 g ai/ha): 35%
pest or weed control at 62 g/ha (green foxtail [2]; 62 g ai/ha): 100%
pest or weed control at 125 g/ha (green foxtail [2]; 125 g ai/ha): 100%
pest or weed control at 250 g/ha (green foxtail [2]; 250 g ai/ha): 100%
pest or weed control at 31 g/ha (lambsquarters; 31 g ai/ha): 90%
pest or weed control at 62 g/ha (lambsquarters; 62 g ai/ha): 85%
pest or weed control at 125 g/ha (lambsquarters; 125 g ai/ha): 80%
pest or weed control at 250 g/ha (lambsquarters; 250 g ai/ha): 95%
pest or weed control at 31 g/ha (green foxtail [3]; 31 g ai/ha): 20%
pest or weed control at 62 g/ha (green foxtail [3]; 62 g ai/ha): 35%
pest or weed control at 125 g/ha (green foxtail [3]; 125 g ai/ha): 50%
pest or weed control at 250 g/ha (green foxtail [3]; 250 g ai/ha): 80%
pest or weed control at 31 g/ha (wild buckwheat; 31 g ai/ha): 80%
pest or weed control at 62 g/ha (wild buckwheat; 62 g ai/ha): 100%
pest or weed control at 125 g/ha (wild buckwheat; 125 g ai/ha): 100%
pest or weed control at 250 g/ha (wild buckwheat; 250 g ai/ha): 100%
pest or weed control at 31 g/ha (kochia; 31 g ai/ha): 95%
pest or weed control at 62 g/ha (kochia; 62 g ai/ha): 95%
pest or weed control at 125 g/ha (kochia; 125 g ai/ha): 95%
pest or weed control at 250 g/ha (kochia; 250 g ai/ha): 95%
plant injury at 31 g/ha (winter barley; 31 g ai/ha): 10%
plant injury at 62 g/ha (winter barley; 62 g ai/ha): 15%
plant injury at 125 g/ha (winter barley; 125 g ai/ha): 15%
plant injury at 250 g/ha (winter barley; 250 g ai/ha): 25%
plant injury at 31 g/ha (spring barley; 31 g ai/ha): 10%
plant injury at 62 g/ha (spring barley; 62 g ai/ha): 20%
plant injury at 125 g/ha (spring barley; 125 g ai/ha): 20%
plant injury at 250 g/ha (spring barley; 250 g ai/ha): 35%
